The values that follow come from patent US20230265151A1, “GIP/GLP1 CO-AGONIST COMPOUNDS” (priority 2020, published 2023).

Holding throughout (format): cell-based
One assay has as its target hGLP-1R (Homo sapiens, UniProt P43220). The experiment in a line: Functional cAMP formation (HTRF) in HEK-293 clonal cells expressing hGLP-1R, 0.1% bovine casein, without or with 1.0% human serum albumin. On the set-up: expressed in transfected cells. To be noted: for Emax: read-out: hGLP-1R Emax, % ± SEM; for EC50: geometric mean, read-out: hGLP-1R EC50, nM (SEM, n). An outline of the steps: (§1)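 Cells were stimulated with peptide for 30 min at 37° C, then lysed in buffer carrying cAMP-d2 and anti-cAMP Eu3+-cryptate for a competitive HTRF read after at least 60 min at room temperature. The 665/620 nm ratio was converted to nM cAMP against a standard curve.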

Another assay has as its target T1, hGCGR (Homo sapiens, UniProt P47871).
T1 construct: expressed in transfected cells
Put plainly: Functional cAMP formation (HTRF) in HEK-293 clonal cells expressing hGCGR, 0.1% bovine casein, without or with 1.0% human serum albumin. To be noted: read-out: hGCGR EC50, nM (SEM, n). Put shortly: as §1

Another assay concerns the target T2, hGIPR (Homo sapiens, UniProt P48546).
T2 construct: expressed in transfected cells
T2 sequence (P48546 22-466): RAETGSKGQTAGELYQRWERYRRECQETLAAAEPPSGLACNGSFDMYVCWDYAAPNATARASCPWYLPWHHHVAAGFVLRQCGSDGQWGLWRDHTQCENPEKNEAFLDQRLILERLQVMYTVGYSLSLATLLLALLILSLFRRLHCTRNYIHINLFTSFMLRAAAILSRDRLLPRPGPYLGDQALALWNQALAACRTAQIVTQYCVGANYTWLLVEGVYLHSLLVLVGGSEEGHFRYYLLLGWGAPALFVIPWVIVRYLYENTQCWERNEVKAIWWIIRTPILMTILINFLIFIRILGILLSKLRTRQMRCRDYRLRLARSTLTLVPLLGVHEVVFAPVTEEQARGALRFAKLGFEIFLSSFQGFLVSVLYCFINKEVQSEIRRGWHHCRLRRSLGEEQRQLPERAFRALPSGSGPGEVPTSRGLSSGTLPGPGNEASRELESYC
The experiment in a line: Functional cAMP formation (HTRF) in HEK-293 clonal cells expressing hGIPR, 0.1% bovine casein, without or with 1.0% human serum albumin. To be noted: for Emax: read-out: hGIPR Emax, % ± SEM; for EC50: cAMP, read-out: hGIPR EC50, nM (SEM, n). Put shortly:
as §1

The mark [1] stands for this setting: HEK293, percent of maximal response to GLP-1(7-36)NH2, 37° C., 0.1% bovine casein, arithmetic mean.
The mark [2] stands for this setting: 0.1% bovine casein and 1.0% human serum albumin, 37° C., geometric mean.
Setting [3] is: cAMP, incubated at 37° C., 0.1% bovine casein (no human serum albumin), geometric mean.
The mark [4] stands for this setting: HEK293, 0.1% bovine casein and 1.0% human serum albumin, 37° C., percent of maximal response to GIP(1-42)NH2.
Setting [5] is: incubated at 37° C., 0.1% bovine casein (no human serum albumin), geometric mean.
The mark [6] stands for this setting: HEK293, 0.1% bovine casein and 1.0% human serum albumin, 37° C., percent of maximal response to GLP-1(7-36)NH2.

Like-named read-outs stand apart in the source and are kept apart here. *1 amine or outer side, *2 acyl side, *3 side chain or, on linkers, in order; H or OH if unused. Where a SMILES comes first, the peptide text is derived from it. Side-chain parts run from the residue outwards. [ ]: non-standard residue; d: D form. The star is where a group is joined. αMePhe(2-F) = C[C@](N)(Cc1ccccc1F)C(=O)O; γGlu = O=C(O)[C@H](CCC(=O)[*:2])N[*:1]; C14 diacid = O=C(O)CCCCCCCCCCCCC(=O)*; αMeY = C[C@](N)(Cc1ccc(O)cc1)C(=O)O; αMeL = CC(C)C[C@](C)(N)C(=O)O; Orn = NCCC[C@H](N)C(=O)O; AEEA = NCCOCCOCC(=O)O; Aib = CC(C)(N)C(=O)O

hGLP-1R, sequence (P43220 24-463): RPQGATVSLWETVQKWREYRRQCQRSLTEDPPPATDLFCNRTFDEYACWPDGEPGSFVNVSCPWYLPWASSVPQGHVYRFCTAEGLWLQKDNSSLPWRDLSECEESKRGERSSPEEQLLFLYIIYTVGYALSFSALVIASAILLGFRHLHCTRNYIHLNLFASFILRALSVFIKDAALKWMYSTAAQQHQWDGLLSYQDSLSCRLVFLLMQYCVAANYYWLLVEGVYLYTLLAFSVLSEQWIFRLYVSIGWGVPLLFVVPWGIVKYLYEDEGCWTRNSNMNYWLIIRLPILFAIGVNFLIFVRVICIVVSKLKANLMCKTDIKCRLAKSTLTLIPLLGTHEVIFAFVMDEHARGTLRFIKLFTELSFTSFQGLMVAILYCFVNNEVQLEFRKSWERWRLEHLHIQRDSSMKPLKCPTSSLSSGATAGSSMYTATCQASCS
T1 sequence (P47871 26-477): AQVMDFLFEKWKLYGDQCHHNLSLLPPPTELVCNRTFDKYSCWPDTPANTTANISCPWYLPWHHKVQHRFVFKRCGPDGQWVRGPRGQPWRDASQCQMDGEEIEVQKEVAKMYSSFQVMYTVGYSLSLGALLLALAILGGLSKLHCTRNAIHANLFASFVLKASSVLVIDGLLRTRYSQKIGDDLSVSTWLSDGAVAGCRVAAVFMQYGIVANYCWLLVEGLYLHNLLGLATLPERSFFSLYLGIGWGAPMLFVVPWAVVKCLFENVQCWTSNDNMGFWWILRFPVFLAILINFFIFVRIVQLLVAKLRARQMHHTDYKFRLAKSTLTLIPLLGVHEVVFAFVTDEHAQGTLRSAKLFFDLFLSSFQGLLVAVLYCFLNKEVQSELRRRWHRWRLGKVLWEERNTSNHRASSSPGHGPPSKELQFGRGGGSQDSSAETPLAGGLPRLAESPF

`CC[C@H](C)[C@H](NC(=O)[C@H](CCCN)NC(=O)[C@H](CC(=O)O)NC(=O)[C@H](CC(C)C)NC(=O)[C@](C)(CC(C)C)NC(=O)[C@@H](NC(=O)C(C)(C)NC(=O)[C@H](Cc1ccc(O)cc1)NC(=O)[C@H](CC(=O)O)NC(=O)[C@H](CO)NC(=O)[C@@H](NC(=O)[C@](C)(Cc1ccccc1F)NC(=O)[C@@H](NC(=O)CNC(=O)[C@H](CCC(=O)O)NC(=O)C(C)(C)NC(=O)[C@@H](N)Cc1ccc(O)cc1)[C@@H](C)O)[C@@H](C)O)[C@@H](C)CC)C(=O)N[C@@H](C)C(=O)N[C@@H](CCC(N)=O)C(=O)NC(C)(C)C(=O)N[C@@H](CCCCNC(=O)COCCOCCNC(=O)COCCOCCNC(=O)CC[C@H](NC(=O)CCCCCCCCCCCCC(=O)O)C(=O)O)C(=O)N[C@@H](Cc1ccccc1)C(=O)N[C@H](C(=O)N[C@H](CCC(=O)O)C(=O)N[C@@](C)(Cc1ccc(O)cc1)C(=O)N[C@@H](CC(C)C)C(=O)N[C@H](C(=O)N[C@@H](CCCCNC(=O)COCCOCCNC(=O)COCCOCCNC(=O)CC[C@H](NC(=O)CCCCCCCCCCCCC(=O)O)C(=O)O)C(=O)NCC(=O)NCC(=O)N1CCC[C@H]1C(=O)N[C@@H](CO)C(=O)N[C@@H](CO)C(=O)NCC(=O)N[C@@H](C)C(=O)N1CCC[C@H]1C(=O)N1CCC[C@H]1C(=O)N1CCC[C@H]1C(=O)N[C@@H](CO)C(N)=O)[C@@H](C)CC)[C@@H](C)CC` [Example 234] (H-Y[Aib]EGT[αMePhe(2-F)]TSDY[Aib]I[αMeL]LD[Orn]IAQ[Aib]K([AEEA-AEEA-γGlu-C14 diacid])FI[dE][αMeY]LIK([AEEA-AEEA-γGlu-C14 diacid])GGPSSGAPPPS-NH2; N-terminus assumed): the results for the Emax at hGLP-1R (setting [1]) and at hGIPR (setting [4]) were 112% and 84.4%, respectively. The EC50 on hGLP-1R (cAMP, incubated at 37° C., 0.1% bovine casein (no human serum albumin)) was 0.319 nM; on hGCGR (setting [2]), over 9950 nM; on hGCGR (setting [3]), over 9950 nM; at hGIPR (setting [5]) it was 0.0182 nM.

As for `CC[C@H](C)[C@H](NC(=O)[C@H](CCCN)NC(=O)[C@H](CC(=O)O)NC(=O)[C@H](CC(C)C)NC(=O)[C@](C)(CC(C)C)NC(=O)[C@@H](NC(=O)[C@H](CO)NC(=O)[C@H](Cc1ccncc1)NC(=O)[C@H](CC(=O)O)NC(=O)[C@H](CO)NC(=O)[C@@H](NC(=O)[C@](C)(Cc1ccccc1F)NC(=O)[C@@H](NC(=O)CNC(=O)[C@H](CCC(=O)O)NC(=O)C(C)(C)NC(=O)[C@@H](N)Cc1ccc(O)cc1)[C@@H](C)O)[C@@H](C)O)[C@@H](C)CC)C(=O)N[C@@H](C)C(=O)N[C@@H](CCC(N)=O)C(=O)NC(C)(C)C(=O)N[C@@H](CCC(=O)O)C(=O)N[C@@H](Cc1ccccc1)C(=O)N[C@H](C(=O)N[C@@H](CCCCNC(=O)COCCOCCNC(=O)COCCOCCNC(=O)COCCOCCNC(=O)CC[C@H](NC(=O)CCCCCCCCCCCCC(=O)O)C(=O)O)C(=O)N[C@@](C)(Cc1ccc(O)cc1)C(=O)N[C@@H](CC(C)C)C(=O)N[C@H](C(=O)N[C@@H](CCCCNC(=O)COCCOCCNC(=O)COCCOCCNC(=O)COCCOCCNC(=O)CC[C@H](NC(=O)CCCCCCCCCCCCC(=O)O)C(=O)O)C(=O)NCC(=O)NCC(=O)N1CCC[C@H]1C(=O)N[C@@H](CO)C(=O)N[C@@H](CO)C(=O)NCC(=O)N[C@@H](C)C(=O)N1CCC[C@H]1C(=O)N1CCC[C@H]1C(=O)N1CCC[C@H]1C(=O)N[C@@H](CO)C(N)=O)[C@@H](C)CC)[C@@H](C)CC` [Example 226], the EC50 at hGLP-1R (0.1% bovine casein and 1.0% human serum albumin, 37° C.) is 11.3 nM; on hGCGR (setting [2]), over 9950 nM; on hGCGR (setting [3]) it was over 9950 nM; on hGIPR (setting [5]), 0.0232 nM. The Emax on hGLP-1R (setting [6]) stood at 118%; on hGIPR (setting [4]) it was 92.1%.

In the case of `CC[C@H](C)[C@H](NC(=O)[C@H](CCCN)NC(=O)[C@H](CC(=O)O)NC(=O)[C@H](CC(C)C)NC(=O)[C@](C)(CC(C)C)NC(=O)[C@@H](NC(=O)C(C)(C)NC(=O)[C@@H](NC(=O)[C@H](CC(=O)O)NC(=O)[C@H](CO)NC(=O)[C@@H](NC(=O)[C@](C)(Cc1ccccc1F)NC(=O)[C@@H](NC(=O)CNC(=O)[C@H](CCC(=O)O)NC(=O)C(C)(C)NC(=O)[C@@H](N)Cc1ccc(O)cc1)[C@@H](C)O)[C@@H](C)O)C(C)C)[C@@H](C)CC)C(=O)N[C@@H](C)C(=O)N[C@@H](CCC(N)=O)C(=O)NC(C)(C)C(=O)N[C@@H](CCC(=O)O)C(=O)N[C@@H](Cc1ccccc1)C(=O)N[C@H](C(=O)N[C@@H](CCCCNC(=O)COCCOCCNC(=O)COCCOCCNC(=O)COCCOCCNC(=O)CC[C@H](NC(=O)CCCCCCCCCCCCC(=O)O)C(=O)O)C(=O)N[C@@](C)(Cc1ccc(O)cc1)C(=O)N[C@@H](CC(C)C)C(=O)N[C@H](C(=O)N[C@@H](CCCCNC(=O)COCCOCCNC(=O)COCCOCCNC(=O)COCCOCCNC(=O)CC[C@H](NC(=O)CCCCCCCCCCCCC(=O)O)C(=O)O)C(=O)NCC(=O)NCC(=O)N1CCC[C@H]1C(=O)N[C@@H](CO)C(=O)N[C@@H](CO)C(=O)NCC(=O)N[C@@H](C)C(=O)N1CCC[C@H]1C(=O)N1CCC[C@H]1C(=O)N1CCC[C@H]1C(=O)N[C@@H](CO)C(N)=O)[C@@H](C)CC)[C@@H](C)CC` [Example 344], the Emax at hGLP-1R (HEK293, cAMP, 37° C., 0.1% bovine casein and 1.0% human serum albumin, percent of maximal response to GLP-1(7-36)NH2) worked out at 96.5%; on hGLP-1R (HEK293, cAMP, 37° C., 0.1% bovine casein, percent of maximal response to GLP-1(7-36)NH2, arithmetic mean), 100%; at hGIPR (HEK293, cAMP, 37° C., 0.1% bovine casein and 1.0% human serum albumin, percent of maximal response to GIP(1-42)NH2), 87.3%; at hGIPR (HEK293, cAMP, 37° C., 0.1% bovine casein, percent of maximal response to GIP(1-42)NH2, arithmetic mean), 97.9%. Besides, the EC50 on hGLP-1R (cAMP, 37° C., 0.1% bovine casein (no human serum albumin)) was 0.336 nM; on hGCGR (cAMP, 37° C., 0.1% bovine casein (no human serum albumin), geometric mean), over 9950 nM; on hGCGR (cAMP, 37° C., 0.1% bovine casein and 1.0% human serum albumin, geometric mean (SEM, n)), over 9950 nM; at hGIPR (37° C., 0.1% bovine casein (no human serum albumin), geometric mean), 0.0174 nM; on hGIPR (37° C., 0.1% bovine casein and 1.0% human serum albumin, geometric mean (SEM, n)) it was 6.78 nM.

As to `CC[C@H](C)[C@H](NC(=O)[C@H](CC(C)C)NC(=O)[C@](C)(Cc1ccc(O)cc1)NC(=O)[C@@H](CCC(=O)O)NC(=O)[C@@H](NC(=O)[C@H](Cc1ccccc1Cl)NC(=O)[C@H](CCC(=O)O)NC(=O)C(C)(C)NC(=O)[C@H](CCC(N)=O)NC(=O)[C@H](C)NC(=O)[C@H](CCCCNC(=O)COCCOCCNC(=O)COCCOCCNC(=O)CC[C@H](NC(=O)CCCCCCCCCCCCC(=O)O)C(=O)O)NC(=O)[C@H](CCCN)NC(=O)[C@H](CC(=O)O)NC(=O)[C@H](CC(C)C)NC(=O)[C@](C)(CC(C)C)NC(=O)[C@@H](NC(=O)[C@H](CO)NC(=O)[C@H](Cc1ccncc1)NC(=O)[C@H](CC(=O)O)NC(=O)[C@H](CO)NC(=O)[C@@H](NC(=O)[C@](C)(Cc1ccccc1F)NC(=O)[C@@H](NC(=O)CNC(=O)[C@H](CCC(=O)O)NC(=O)C(C)(C)NC(=O)[C@@H](N)Cc1ccc(O)cc1)[C@@H](C)O)[C@@H](C)O)[C@@H](C)CC)[C@@H](C)CC)C(=O)N[C@@H](CCC(=O)O)C(=O)NCC(=O)NCC(=O)N[C@@H](CCCCNC(=O)COCCOCCNC(=O)COCCOCCNC(=O)CC[C@H](NC(=O)CCCCCCCCCCCCC(=O)O)C(=O)O)C(=O)N[C@@H](CO)C(=O)N[C@@H](CO)C(=O)NCC(=O)N[C@@H](C)C(=O)N1CCC[C@H]1C(=O)N1CCC[C@H]1C(=O)N1CCC[C@H]1C(=O)N[C@@H](CO)C(N)=O` [Example 61], the Emax was determined as 89.7% on hGLP-1R (setting [6]); 82.9% on hGLP-1R (setting [1]); 92.8% at hGIPR (setting [4]); 88.2% at hGIPR (HEK293, percent of maximal response to GIP(1-42)NH2, 37° C., 0.1% bovine casein, arithmetic mean). Further, the results for the EC50 at hGCGR (setting [2]), at hGCGR (setting [3]) and at hGIPR (setting [5]) were over 9950 nM, over 9950 nM and 0.012 nM, respectively.
